In ChEMBL document CHEMBL1201862, “PubChem BioAssay data set” (2004):
Active and inactive are the calls of the source.

What was measured:
[1] = target: T1, Histone-lysine N-methyltransferase NSD2 (Homo sapiens, UniProt O96028); type: biochemical
T1 sequence (O96028 whole entry): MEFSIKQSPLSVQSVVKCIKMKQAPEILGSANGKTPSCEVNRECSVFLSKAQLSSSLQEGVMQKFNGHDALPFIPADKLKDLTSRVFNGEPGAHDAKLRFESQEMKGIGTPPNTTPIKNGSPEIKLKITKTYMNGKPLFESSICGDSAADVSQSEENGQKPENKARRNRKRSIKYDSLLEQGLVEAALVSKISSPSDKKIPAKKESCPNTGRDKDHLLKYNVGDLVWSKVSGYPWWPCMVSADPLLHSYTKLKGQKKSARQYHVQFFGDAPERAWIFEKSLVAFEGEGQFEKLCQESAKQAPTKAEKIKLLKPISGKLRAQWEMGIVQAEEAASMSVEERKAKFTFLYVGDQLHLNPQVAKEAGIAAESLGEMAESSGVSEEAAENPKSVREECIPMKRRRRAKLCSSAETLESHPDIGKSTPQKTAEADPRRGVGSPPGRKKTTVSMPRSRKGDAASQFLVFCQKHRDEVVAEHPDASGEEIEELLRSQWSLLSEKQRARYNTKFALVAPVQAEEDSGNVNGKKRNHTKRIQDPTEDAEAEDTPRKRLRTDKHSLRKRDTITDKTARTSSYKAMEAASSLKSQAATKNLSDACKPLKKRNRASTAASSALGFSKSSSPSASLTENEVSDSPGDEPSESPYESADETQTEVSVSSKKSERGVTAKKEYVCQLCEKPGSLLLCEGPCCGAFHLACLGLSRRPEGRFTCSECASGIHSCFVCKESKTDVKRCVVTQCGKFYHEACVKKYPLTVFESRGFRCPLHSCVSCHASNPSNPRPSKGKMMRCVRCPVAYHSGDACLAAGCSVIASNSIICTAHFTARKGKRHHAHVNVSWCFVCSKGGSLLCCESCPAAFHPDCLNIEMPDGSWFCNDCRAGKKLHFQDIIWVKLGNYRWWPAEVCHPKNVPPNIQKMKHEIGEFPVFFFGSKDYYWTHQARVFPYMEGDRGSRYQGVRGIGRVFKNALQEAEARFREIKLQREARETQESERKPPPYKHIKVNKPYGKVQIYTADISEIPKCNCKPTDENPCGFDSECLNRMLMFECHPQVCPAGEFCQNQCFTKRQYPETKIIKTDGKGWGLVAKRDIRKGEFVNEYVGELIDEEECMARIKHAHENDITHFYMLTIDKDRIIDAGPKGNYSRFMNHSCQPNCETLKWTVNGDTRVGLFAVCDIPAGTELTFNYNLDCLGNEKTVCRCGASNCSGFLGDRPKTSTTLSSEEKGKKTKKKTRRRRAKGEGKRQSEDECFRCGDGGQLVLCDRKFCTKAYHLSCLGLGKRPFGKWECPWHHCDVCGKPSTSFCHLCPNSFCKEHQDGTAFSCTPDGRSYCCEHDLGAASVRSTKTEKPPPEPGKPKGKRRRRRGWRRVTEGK

[2] = target: T2, Fatty acid synthase (Homo sapiens, UniProt P49327); assay: FAS thioesterase domain inhibitors, dose response, biochemical, endpoint fluorescence intensity, uHTS hits (AID 624327); type: functional;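 further: fluorescence from hydrolysis of an O-methyl fluorescein acyl ester substrate by the enzyme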
[3] = target: T2, Fatty acid synthase; assay: FAS thioesterase domain inhibitors, dose response, biochemical, kinetic fluorescence intensity (AID 624326); type: functional;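 further: rate of fluorescence rise from hydrolysis of a fluorogenic O-methyl fluorescein ester substrate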
[4] = Luminescence Cell-Based Dose Response HTS to Identify Inhibitors of 5'UTR Stem-Loop Driven Prion Protein mRNA Translation in H4 Neuroglioblastoma Cells. [Related pubchem assays: 1827 (Project Summary), 1813 (Primary HTS)]; type: functional
[5] = inhibitors of SNCA 5'UTR-driven reporter translation, confirmation, H4 neuroglioma cells, luminescence (AID 1988); type: functional, cell-based
[6] = cytotoxicity in HEK-293T cells, dose response, cytotoxicity control for TCR NF-kB inhibitor project, luminescence, T-cell screen hits (AID 489026); type: functional, cell-based;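 further: cells exposed to compound about 14 hours before the viability readout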
[7] = inhibitors of firefly luciferase expression or activity, dose response, H4 neuroglioma cells, luminescence (AID 1990); type: functional, cell-based
[8] = inhibitors of intracellular T. cruzi replication, confirmation, NIH3T3 host cells, beta-gal luminescence (AID 2044); type: functional, cell-based;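 further: intracellular parasites grown in NIH/3T3 mouse fibroblasts as host cells; luminescent beta-galactosidase reporter signal from transgenic T. cruzi replicating inside host cells; inhibitors lower the luminescence signal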
[9] = cytotoxicity toward NIH3T3 fibroblasts, dose response, counter-screen, cell-based, ATP luminescence, mouse fibroblasts (AID 2010); type: functional;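 further: cells exposed to compound for about 90 hours before reading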
[10] = target: T3, Ubiquitin-conjugating enzyme E2 N (Homo sapiens, UniProt P61088); type: functional;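 further: Dose-response confirmation in a TR-FRET assay detecting UBC13-driven polyubiquitin chain formation, inhibition measured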
T3 sequence (P61088 whole entry): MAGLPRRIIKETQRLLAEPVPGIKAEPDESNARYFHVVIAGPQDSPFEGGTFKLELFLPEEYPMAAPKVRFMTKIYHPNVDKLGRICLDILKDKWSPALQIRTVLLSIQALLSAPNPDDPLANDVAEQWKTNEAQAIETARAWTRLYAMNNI

[11] = target: T4, Apoptotic protease-activating factor 1 (Homo sapiens, UniProt O14727); type: functional
T4 sequence (O14727 whole entry): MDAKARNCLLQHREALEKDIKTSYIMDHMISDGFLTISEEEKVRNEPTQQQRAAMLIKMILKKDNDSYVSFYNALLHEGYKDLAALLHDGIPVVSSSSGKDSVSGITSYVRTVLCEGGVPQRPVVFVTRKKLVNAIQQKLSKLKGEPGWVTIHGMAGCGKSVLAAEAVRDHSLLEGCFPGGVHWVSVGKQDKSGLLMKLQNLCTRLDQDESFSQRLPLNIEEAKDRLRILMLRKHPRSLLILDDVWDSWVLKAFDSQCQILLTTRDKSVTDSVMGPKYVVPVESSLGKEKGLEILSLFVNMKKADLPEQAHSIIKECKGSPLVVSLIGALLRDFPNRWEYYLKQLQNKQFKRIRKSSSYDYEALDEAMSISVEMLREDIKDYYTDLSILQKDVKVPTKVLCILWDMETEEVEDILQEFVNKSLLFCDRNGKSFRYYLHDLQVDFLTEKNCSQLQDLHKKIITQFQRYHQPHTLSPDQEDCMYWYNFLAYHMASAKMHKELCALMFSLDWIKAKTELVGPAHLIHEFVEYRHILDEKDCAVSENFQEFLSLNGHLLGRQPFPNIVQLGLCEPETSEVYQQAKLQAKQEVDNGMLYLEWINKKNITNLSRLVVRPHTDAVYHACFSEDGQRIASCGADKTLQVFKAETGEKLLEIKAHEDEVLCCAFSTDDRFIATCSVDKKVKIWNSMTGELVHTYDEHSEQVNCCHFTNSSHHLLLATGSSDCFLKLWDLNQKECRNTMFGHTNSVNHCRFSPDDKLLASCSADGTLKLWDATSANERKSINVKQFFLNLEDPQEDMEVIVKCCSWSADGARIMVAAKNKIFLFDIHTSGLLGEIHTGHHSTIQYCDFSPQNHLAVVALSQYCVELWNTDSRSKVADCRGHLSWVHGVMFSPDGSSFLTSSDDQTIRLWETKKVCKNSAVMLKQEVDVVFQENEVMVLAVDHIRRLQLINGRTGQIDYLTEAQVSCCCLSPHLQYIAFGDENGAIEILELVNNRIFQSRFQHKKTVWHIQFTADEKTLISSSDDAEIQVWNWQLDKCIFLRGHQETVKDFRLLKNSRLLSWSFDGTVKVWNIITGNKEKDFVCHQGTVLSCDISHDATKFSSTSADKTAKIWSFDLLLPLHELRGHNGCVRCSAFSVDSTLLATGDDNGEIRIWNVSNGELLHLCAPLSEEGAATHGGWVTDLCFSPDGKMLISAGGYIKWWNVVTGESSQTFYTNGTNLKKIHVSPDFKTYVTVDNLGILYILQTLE

[12] = target: Paired box protein Pax-8 (Homo sapiens, UniProt Q06710); assay: inhibitors of PAX8-driven TPO luciferase reporter, dose response, RMG-I cells, cherry-pick (AID 687027); type: functional, cell-based;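 further: luciferase reporter driven by Pax8 target thyroperoxidase promoter measured by SteadyGlo luminescence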
[13] = tested on: P388; assay: cells; type: functional; conditions: Mus musculus
[14] = tested on: P388/ADR; assay: cells; type: functional; conditions: Mus musculus
[15] = tested on: SN12K1; assay: cells; type: functional; conditions: Homo sapiens
[16] = inhibitors of HIV Env-driven cell fusion, dose response, cherry-pick (AID 652057); type: functional, cell-based
[17] = inhibitors of clade B AD8 Env fusion, dose response, cell-based, cherry-pick (AID 652062); type: functional;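 further: luciferase signal from cell-cell fusion driven by HIV-1 clade B AD8 Env; potency is for inhibitors of fusion seen as a drop in luminescence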

T2 sequence (P49327 whole entry, the tested form may be a part): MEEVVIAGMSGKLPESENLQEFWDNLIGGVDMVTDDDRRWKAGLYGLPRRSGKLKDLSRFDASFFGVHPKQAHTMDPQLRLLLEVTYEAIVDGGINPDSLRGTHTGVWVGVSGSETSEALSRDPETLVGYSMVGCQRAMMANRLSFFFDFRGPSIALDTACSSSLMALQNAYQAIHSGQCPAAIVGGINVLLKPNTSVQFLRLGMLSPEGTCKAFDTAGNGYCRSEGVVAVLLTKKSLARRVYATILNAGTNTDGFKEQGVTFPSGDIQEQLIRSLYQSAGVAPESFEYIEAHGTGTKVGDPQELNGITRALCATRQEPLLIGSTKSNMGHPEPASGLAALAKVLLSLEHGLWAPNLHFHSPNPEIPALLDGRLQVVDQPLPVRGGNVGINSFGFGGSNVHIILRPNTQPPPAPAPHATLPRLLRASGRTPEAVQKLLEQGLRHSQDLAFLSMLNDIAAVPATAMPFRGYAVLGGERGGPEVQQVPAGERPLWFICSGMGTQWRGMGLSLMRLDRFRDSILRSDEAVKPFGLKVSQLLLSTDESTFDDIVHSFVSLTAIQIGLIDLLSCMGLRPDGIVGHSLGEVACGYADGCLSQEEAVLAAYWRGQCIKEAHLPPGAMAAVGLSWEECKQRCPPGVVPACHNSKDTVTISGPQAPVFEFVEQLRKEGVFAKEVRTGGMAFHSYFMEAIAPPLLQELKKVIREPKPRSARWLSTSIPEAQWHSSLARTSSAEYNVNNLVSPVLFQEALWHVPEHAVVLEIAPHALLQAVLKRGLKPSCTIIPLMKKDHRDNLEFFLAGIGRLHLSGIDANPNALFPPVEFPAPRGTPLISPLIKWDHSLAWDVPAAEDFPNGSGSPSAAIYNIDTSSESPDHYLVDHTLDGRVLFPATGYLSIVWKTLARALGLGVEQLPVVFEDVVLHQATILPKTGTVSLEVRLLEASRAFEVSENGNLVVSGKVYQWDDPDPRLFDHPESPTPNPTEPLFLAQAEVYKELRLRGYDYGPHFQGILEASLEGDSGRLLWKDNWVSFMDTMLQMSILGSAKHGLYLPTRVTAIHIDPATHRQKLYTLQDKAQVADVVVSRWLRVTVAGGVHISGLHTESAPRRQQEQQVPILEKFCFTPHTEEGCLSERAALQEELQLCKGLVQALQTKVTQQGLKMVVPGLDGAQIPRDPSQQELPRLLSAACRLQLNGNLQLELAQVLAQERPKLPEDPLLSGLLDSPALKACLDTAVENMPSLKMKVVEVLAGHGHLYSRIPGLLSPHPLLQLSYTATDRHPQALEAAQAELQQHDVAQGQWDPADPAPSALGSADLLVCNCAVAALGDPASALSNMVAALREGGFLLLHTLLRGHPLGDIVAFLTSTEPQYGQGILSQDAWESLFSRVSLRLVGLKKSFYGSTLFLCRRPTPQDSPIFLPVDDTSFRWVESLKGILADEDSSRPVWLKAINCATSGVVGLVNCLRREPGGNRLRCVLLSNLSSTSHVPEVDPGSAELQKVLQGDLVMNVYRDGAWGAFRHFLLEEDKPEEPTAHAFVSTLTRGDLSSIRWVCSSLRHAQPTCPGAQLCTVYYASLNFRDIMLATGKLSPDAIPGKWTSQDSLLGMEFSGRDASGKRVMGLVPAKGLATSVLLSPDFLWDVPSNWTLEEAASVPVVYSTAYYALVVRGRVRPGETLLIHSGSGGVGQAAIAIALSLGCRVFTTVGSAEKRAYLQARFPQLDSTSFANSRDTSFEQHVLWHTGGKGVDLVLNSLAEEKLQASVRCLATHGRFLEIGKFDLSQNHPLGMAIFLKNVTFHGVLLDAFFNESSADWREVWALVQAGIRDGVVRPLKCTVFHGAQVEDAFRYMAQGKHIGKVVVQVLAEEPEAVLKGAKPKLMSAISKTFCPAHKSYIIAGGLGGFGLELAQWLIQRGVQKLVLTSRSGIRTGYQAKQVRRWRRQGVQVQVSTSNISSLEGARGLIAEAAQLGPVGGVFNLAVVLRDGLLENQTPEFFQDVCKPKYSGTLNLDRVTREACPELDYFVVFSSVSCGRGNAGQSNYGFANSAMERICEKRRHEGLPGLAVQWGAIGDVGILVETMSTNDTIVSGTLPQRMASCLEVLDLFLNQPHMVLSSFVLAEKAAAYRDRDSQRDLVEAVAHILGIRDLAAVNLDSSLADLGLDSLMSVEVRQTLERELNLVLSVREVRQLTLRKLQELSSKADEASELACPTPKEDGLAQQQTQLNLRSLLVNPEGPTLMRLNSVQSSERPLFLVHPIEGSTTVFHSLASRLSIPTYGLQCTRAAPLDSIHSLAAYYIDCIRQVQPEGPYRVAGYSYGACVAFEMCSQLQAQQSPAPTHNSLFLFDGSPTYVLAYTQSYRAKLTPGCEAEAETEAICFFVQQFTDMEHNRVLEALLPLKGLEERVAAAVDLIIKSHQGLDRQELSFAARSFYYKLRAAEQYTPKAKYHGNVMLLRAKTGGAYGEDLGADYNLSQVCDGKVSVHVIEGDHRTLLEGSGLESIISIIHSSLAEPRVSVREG
Paired box protein Pax-8, sequence (Q06710 whole entry): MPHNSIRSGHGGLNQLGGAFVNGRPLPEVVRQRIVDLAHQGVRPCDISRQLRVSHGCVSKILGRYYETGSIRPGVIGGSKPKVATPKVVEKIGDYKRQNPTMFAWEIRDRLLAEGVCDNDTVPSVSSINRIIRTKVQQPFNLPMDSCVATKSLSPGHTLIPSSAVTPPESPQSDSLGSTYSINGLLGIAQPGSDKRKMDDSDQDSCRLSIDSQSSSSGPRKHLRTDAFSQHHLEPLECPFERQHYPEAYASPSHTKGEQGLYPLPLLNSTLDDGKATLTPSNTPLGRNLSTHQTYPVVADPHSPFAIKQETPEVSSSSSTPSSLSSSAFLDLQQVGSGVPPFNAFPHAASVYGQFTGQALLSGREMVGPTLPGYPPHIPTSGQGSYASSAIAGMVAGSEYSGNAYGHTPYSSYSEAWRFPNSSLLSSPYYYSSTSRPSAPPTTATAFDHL

SMILES: CCN(CC)CCCN(Cc1cc2cc3c(cc2nc1O)OCO3)C(S)=NCCCOC
- AC50 [1]: > 20 µM (inactive)

SMILES: C[C@H](NC(=O)c1[nH]cnc1C(=O)N[C@@H](CCCCNC(=O)OC(C)(C)C)C(=O)OC(C)(C)C)C(=O)OC(C)(C)C
- IC50 [2]: 2.95 µM (active)
- IC50 [3]: 2.6 µM (active)

SMILES: O=C(NCc1ccc2c(c1)OCO2)c1ccc(C2SCC(=O)N2Cc2ccco2)cc1 (centres undefined)
- IC50 [2]: 8.5 µM (active)
- IC50 [3]: 5.95 µM (active)

SMILES: CCOC(=O)C1CCCN(c2nc3c(C)cccn3c(=O)c2/C=C(\C#N)C(=O)NCc2ccco2)C1 (centres undefined)
- IC50 [2]: 16.2 µM (active)
- IC50 [3]: 8.23 µM (active)

SMILES: CC(C)n1c(CN(C)Cc2ccccc2)nc2c1c(=O)n(C)c(=O)n2C
- EC50 [4]: > 120 µM (not active)
- EC50 [5]: > 120 µM (not active)
- IC50 [6]: > 80 µM (inactive)
- EC50 [7]: 43 µM (active)

SMILES: Cc1c(Cl)c([N+](=O)[O-])nn1CCCC(=O)N(Cc1ccccc1)Cc1ccccc1
- EC50 [8]: 1.86 µM (active)
- IC50 [2]: 10 µM (active)
- EC50 [9]: 29.7 µM (active)
- IC50 [3]: 11 µM (active)

SMILES: COC(=O)C1=C(C)N(Cc2ccccc2)C(NCCc2c[nH]c3ccccc23)=N[C@H]1c1cccc(C(F)(F)F)c1
- IC50 [10]: > 20 µM (inactive)
- IC50 [11]: 71 µM (active)

SMILES: COCCCNC(=O)C(=O)Nc1ccc2c(c1)N(S(=O)(=O)c1cccs1)CCC2
- EC50 [4]: 6.86 µM (active)
- EC50 [5]: 0.419 µM (active)
- IC50 [6]: > 80 µM (inactive)
- EC50 [7]: 4.45 µM (inconclusive)

SMILES: COc1ccccc1OCCNC(=O)c1cccc(S(=O)(=O)N2CCN(Cc3ccccc3)CC2)c1
- IC50 [10]: > 20 µM (inactive)
- IC50 [11]: > 100 µM (inactive)

SMILES: COc1ccc2[nH]c3c(c2c1)CCN1C(=O)C(CC(=O)NC(C)(C)C)C[C@H](C(=O)N2CCOCC2)[C@@]31CCC1CCCC1 (some centres undefined)
- IC50 [2]: 8.32 µM (active)
- IC50 [3]: 7.48 µM (active)

SMILES: Cc1sc(N2CCN(S(=O)(=O)c3ccc4c(c3)NC(=O)CO4)CC2)nc1-c1ccccc1
- IC50 [2]: 4.15 µM (active)
- IC50 [3]: 4.04 µM (active)

SMILES: C=C(C)c1nc(Oc2ccccc2)nc(Oc2ccccc2)n1
- AC50 [12]: 3.04 µM (active)
- GI50 [13]: 1.17 µM (inactive)
- GI50 [14]: 0.824 µM (active)
- GI50 [15]: 3.35 µM (inactive)

SMILES: COc1cc(/C=C/C(=O)Oc2ccc(NC(C)=O)cc2)ccc1C(=O)O/C=C/c1ccccc1
- GI50 [13]: 18.8 µM (inactive)
- GI50 [14]: 8.02 µM (inactive)
- GI50 [15]: > 100 µM (inactive)

SMILES: C=C1C(C)C2C(Cc3ccccc3)NC(=O)C23OC(=O)/C=C\CC(=O)CCC(C)C/C=C/C3C1O (centres undefined)
- GI50 [13]: 0.0552 µM (active)
- GI50 [14]: 0.224 µM (active)
- GI50 [15]: 0.444 µM (active)

SMILES: O=C1Sc2sc(=S)sc2SC1c1ccccc1 (centres undefined)
- GI50 [13]: 22.5 µM (inactive)
- GI50 [14]: 23.7 µM (inactive)
- GI50 [15]: 25.1 µM (inactive)

SMILES: COc1ccccc1/N=C(\C)C1=C(O)CC(c2ccccc2)CC1=O (centres undefined)
- IC50 [6]: > 80 µM (inactive)

SMILES: CCOC(=O)N/N=C/c1c(C)nn(-c2cccc(C(F)(F)F)c2)c1Cl
- IC50 [6]: 69.6 µM (inactive)

SMILES: C[C@H](CO)N1C[C@H](C)[C@@H](CN(C)C(=O)Nc2cccc(C(F)(F)F)c2)OCc2ccccc2-c2ccccc2C1=O
- AC50 [16]: < 0.285 µM (active)
- AC50 [17]: 0.346 µM (active)

SMILES: Cc1ccc(-c2ccc3c(c2)O[C@@H](CN(C)Cc2ccncc2)[C@H](C)CN([C@H](C)CO)S3(=O)=O)cc1
- AC50 [16]: 10.2 µM (active)
- AC50 [17]: 14.2 µM (active)

SMILES: CN(C)c1cc(N/N=C/c2ccccc2C(F)(F)F)nc(N(C)C)n1
- IC50 [11]: 5.07 µM (active)

SMILES: Cc1cccc(OCC(=O)N/N=C/c2cc([N+](=O)[O-])ccc2N2CCOCC2)c1
- IC50 [2]: 9.22 µM (active)
- IC50 [3]: 8.84 µM (active)

SMILES: CC(=O)OC1CCC2(C)C(CCC3C2CCC2(C)C(c4ccc(=O)oc4)C(OC(C)=O)CC32O)C1 (centres undefined)
- GI50 [13]: 14.6 µM (inactive)
- GI50 [14]: 40.9 µM (inactive)
- GI50 [15]: 0.0144 µM (active)

SMILES: CNC=O
- GI50 [13]: > 5620 µM (inactive)
- GI50 [14]: > 10000 µM (inactive)
- GI50 [15]: > 10000 µM (inactive)

SMILES: N[C@H](C(=O)O)[C@@H]1CC(Cl)=NO1 [ACIVICIN]
- GI50 [13]: 0.242 µM (active)
- GI50 [14]: 0.471 µM (active)
- GI50 [15]: 1.13 µM (inactive)

SMILES: CO[C@H]1Nc2c(ccc(C)c2O)C(=O)N2C=C(/C=C/C(N)=O)C[C@@H]12 [ANTHRAMYCIN METHYL ETHER]
- GI50 [13]: 0.0436 µM (active)
- GI50 [14]: 0.101 µM (active)
- GI50 [15]: 0.0197 µM (active)

SMILES: OC[C@H]1O[C@@H](n2cnc3cncnc32)[C@H](O)[C@@H]1O [NEBULARINE]
- GI50 [13]: 0.321 µM (active)
- GI50 [14]: 0.305 µM (active)
- GI50 [15]: 1.48 µM (inactive)
